Assays:
[1] = target: T1, Alpha-1B adrenergic receptor (Homo sapiens, UniProt P35368); experiment: Binding affinity towards human Alpha-1B adrenergic receptor
T1 sequence (P35368 whole entry): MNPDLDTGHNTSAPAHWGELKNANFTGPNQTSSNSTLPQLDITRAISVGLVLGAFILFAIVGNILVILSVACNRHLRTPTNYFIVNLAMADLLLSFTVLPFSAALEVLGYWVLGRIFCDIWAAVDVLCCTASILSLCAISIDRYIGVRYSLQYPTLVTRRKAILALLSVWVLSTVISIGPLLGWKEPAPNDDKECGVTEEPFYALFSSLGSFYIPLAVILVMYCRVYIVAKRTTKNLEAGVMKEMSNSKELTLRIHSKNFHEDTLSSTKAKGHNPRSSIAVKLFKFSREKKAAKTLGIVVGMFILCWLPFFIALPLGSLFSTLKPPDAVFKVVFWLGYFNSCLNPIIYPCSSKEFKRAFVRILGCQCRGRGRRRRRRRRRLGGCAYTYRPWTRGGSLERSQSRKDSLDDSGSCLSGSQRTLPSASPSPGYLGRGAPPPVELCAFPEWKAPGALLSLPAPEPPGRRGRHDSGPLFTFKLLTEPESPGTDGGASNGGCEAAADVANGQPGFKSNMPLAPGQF

[2] = target: T2, Alpha-1A adrenergic receptor (Rattus norvegicus, UniProt P43140); experiment: Binding affinity towards rat Alpha-1A adrenergic receptor
T2 sequence (P43140 whole entry): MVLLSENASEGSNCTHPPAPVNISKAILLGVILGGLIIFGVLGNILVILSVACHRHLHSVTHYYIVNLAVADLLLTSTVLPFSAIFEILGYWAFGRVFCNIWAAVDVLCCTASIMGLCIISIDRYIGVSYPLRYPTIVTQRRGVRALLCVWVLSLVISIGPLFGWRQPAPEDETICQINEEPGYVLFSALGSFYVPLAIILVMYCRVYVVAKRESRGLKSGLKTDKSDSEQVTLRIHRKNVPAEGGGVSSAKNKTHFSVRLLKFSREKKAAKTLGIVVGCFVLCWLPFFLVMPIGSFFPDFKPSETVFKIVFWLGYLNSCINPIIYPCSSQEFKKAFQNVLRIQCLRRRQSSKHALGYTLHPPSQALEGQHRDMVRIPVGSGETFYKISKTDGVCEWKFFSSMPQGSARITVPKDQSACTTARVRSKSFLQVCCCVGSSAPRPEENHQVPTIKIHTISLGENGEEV

[3] = target: T3, Alpha-1A adrenergic receptor (Homo sapiens, UniProt P35348); experiment: Binding affinity for human Alpha-1A adrenergic receptor
T3 sequence (P35348 whole entry): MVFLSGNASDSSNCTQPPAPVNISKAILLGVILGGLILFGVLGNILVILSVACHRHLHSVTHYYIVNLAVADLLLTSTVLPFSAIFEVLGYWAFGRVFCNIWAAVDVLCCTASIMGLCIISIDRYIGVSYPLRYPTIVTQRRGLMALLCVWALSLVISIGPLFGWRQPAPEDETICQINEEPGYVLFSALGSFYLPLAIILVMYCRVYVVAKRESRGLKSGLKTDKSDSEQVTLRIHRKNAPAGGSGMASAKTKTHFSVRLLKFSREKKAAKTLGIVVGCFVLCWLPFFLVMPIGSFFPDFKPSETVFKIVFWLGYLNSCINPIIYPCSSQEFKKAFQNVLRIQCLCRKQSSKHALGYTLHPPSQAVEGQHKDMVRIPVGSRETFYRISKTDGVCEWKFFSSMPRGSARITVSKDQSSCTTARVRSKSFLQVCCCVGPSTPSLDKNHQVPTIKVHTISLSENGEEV

[4] = target: T4, Alpha-1A adrenergic receptor (Bos taurus, UniProt P18130); experiment: Binding affinity towards bovine Alpha-1A adrenergic receptor
T4 sequence (P18130 whole entry): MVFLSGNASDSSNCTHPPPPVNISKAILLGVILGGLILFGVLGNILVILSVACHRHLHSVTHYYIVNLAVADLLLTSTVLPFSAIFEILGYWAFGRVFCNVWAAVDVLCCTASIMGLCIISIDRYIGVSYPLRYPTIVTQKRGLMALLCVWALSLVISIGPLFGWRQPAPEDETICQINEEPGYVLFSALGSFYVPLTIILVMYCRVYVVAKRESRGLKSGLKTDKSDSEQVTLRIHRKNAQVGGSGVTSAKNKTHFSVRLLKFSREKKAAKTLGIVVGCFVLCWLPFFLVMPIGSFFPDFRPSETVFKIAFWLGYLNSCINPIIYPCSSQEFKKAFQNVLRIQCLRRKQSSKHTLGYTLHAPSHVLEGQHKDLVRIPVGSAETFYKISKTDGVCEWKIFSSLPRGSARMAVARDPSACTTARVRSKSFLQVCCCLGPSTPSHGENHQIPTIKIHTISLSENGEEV

[5] = target: T5, Alpha-1D adrenergic receptor (Rattus norvegicus, UniProt P23944); experiment: Binding affinity towards rat Alpha-1D adrenergic receptor
T5 sequence (P23944 whole entry): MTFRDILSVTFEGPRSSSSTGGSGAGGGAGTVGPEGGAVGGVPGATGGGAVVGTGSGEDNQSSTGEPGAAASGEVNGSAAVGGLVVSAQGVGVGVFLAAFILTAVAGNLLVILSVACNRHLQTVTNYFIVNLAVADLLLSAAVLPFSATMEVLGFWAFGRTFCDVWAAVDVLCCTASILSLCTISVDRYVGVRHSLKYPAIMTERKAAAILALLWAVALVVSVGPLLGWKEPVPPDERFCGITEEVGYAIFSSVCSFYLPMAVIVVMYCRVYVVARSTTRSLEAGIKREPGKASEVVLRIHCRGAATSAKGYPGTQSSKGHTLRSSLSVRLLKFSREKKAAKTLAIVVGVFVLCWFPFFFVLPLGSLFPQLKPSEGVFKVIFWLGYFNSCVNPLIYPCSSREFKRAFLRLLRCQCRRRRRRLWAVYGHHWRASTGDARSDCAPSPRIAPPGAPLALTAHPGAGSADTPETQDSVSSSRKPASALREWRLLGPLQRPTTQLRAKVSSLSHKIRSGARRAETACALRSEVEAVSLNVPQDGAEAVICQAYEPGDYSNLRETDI

[6] = target: T6, Alpha-1D adrenergic receptor (Homo sapiens, UniProt P25100); experiment: Binding affinity towards human Alpha-1D adrenergic receptor
T6 sequence (P25100 whole entry): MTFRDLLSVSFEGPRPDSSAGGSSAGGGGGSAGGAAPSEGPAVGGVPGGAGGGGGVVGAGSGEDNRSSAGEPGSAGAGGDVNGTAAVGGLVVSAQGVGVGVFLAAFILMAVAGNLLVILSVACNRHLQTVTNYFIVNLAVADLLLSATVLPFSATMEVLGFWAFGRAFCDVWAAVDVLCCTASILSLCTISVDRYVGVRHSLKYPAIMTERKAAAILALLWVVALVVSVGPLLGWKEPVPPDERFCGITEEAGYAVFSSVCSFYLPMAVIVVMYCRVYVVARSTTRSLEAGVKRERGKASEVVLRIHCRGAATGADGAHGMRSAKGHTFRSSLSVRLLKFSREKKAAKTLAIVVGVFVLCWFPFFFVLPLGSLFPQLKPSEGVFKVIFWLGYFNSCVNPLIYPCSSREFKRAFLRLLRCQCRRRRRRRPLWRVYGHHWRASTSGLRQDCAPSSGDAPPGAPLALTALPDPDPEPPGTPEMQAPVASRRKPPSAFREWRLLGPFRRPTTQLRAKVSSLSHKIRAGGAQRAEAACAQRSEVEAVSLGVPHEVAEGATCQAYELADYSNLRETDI

[7] = target: T7, Alpha-1B adrenergic receptor (Rattus norvegicus, UniProt P15823); experiment: In vitro functional activity at Alpha-1B adrenergic receptor in rat spleen; assay type: tissue-based; settings: read-out: pA2 (converted)
T7 sequence (P15823 whole entry): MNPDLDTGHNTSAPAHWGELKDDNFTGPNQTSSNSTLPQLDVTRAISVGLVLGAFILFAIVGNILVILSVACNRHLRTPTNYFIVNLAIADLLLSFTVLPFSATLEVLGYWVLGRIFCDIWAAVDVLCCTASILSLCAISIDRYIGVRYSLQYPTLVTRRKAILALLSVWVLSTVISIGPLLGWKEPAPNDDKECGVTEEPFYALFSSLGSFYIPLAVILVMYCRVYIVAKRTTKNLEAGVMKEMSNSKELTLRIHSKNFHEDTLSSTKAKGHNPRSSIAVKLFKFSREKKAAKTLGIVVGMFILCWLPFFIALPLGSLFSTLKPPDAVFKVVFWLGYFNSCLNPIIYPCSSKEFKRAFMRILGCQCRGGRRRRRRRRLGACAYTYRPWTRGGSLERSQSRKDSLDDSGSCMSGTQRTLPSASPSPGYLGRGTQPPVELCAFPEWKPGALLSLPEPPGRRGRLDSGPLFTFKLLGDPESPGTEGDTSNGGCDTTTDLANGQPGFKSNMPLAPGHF

Row | SMILES | Ki [1] [nM] | Ki [2] [nM] | Ki [3] [nM] | Ki [4] [nM] | Ki [5] [nM] | Ki [6] [nM] | Kb [7] [nM]
1 | COc1ccccc1N1CCN(CCn2c(=O)[nH]c3sccc3c2=O)CC1 | 1.22 | 0.523 | 0.344 | 0.181 | 0.229 | 0.308 | 
2 | CC(CN1CCN(c2cc(F)c(F)cc2F)CC1)N1C(=O)CC2(CCCC2)CC1=O (single isomer, unassigned) |  |  | 14900 |  |  | 1.3 | 
3 | COc1ccccc1N1CCN(CCN2C(=O)CC3(CCCC3)CC2=O)CC1 [BMY-7378] | 94.3 |  |  | 43 |  |  | 42.7

The remaining lines, values ahead:

Row | Ki [1] [nM] | Ki [2] [nM] | Ki [3] [nM] | Ki [4] [nM] | Ki [5] [nM] | Ki [6] [nM] | Kb [7] [nM] | SMILES
4 | 3.7 | 1.97 | 2.63 | 0.377 | 0.251 | 0.466 |  | COc1ccccc1N1CCN(CCn2c(=O)[nH]c3sc(C)c(-c4ccccc4)c3c2=O)CC1
5 | 1.86 | 0.578 | 0.868 | 0.248 | 0.361 |  |  | COc1ccccc1N1CCN(CCn2c(=O)[nH]c3sc(-c4ccccc4)cc3c2=O)CC1
6 | 15.8 | 9.58 | 8.49 | 1.25 | 8.2 | 7.15 |  | COc1ccccc1N1CCN(CCCn2c(=O)[nH]c3scc(-c4ccccc4)c3c2=O)CC1
7 |  | 2.62 | 3.1 | 0.436 | 0.71 |  |  | COc1ccccc1N1CCN(CCn2c(=O)c3c(-c4ccccc4)csc3n(C)c2=O)CC1
